From ChEMBL document CHEMBL2346609, “Synthesis, characterization and Akt phosphorylation inhibitory activity of cyclopentanecarboxylate-substituted alkylphosphocholines” (Bioorg Med Chem, 2013) come the findings set out here.

In general, IC50 refers to the midpoint of a concentration-inhibition curve. High values mean a need for much substance, low ones inhibition by little substance.

Molecules are shown by their SMILES.

The subject of assay [1] is A549. Description: Cytotoxicity against human A549 cells by flow cytometric analysis. The format is functional, cell-based.
The subject of assay [2] is A549. As to the kind of experiment: Ratio of miltefosine IC50 to compound IC50 for human A549 cells. Type of assay: functional.
The subject of the next assay is MCF7. As to the kind of experiment: Cytotoxicity against human MCF7 cells by flow cytometric analysis. The format is functional, cell-based. On the technique in general: Flow cytometry measures light scatter and fluorescence of single cells or particles in a stream.
Assay [3] concerns A549. As to the kind of experiment: Ratio of perifosine IC50 to compound IC50 for human A549 cells. The format is functional.
Assay [4] is described as follows: Cytotoxicity against human KATO III cells by flow cytometric analysis. Type of assay: functional, cell-based, KATO III cell.
Assay [5] has as its system A549. Description: Ratio of edelfosine IC50 to compound IC50 for human A549 cells. The format is functional.
Assay [6] has as its target RAC-alpha serine/threonine-protein kinase (Homo sapiens, UniProt P31749). As to the kind of experiment: Inhibition of Akt phosphorylation in human insulin-stimulated A549 cells incubated for 2 hrs prior to insulin-induction measured after 30 mins by ELISA. The format is cell-based. In general terms: An ELISA detects its analyte on a solid surface through an enzyme-linked reagent.

Sequence of RAC-alpha serine/threonine-protein kinase (P31749 whole entry): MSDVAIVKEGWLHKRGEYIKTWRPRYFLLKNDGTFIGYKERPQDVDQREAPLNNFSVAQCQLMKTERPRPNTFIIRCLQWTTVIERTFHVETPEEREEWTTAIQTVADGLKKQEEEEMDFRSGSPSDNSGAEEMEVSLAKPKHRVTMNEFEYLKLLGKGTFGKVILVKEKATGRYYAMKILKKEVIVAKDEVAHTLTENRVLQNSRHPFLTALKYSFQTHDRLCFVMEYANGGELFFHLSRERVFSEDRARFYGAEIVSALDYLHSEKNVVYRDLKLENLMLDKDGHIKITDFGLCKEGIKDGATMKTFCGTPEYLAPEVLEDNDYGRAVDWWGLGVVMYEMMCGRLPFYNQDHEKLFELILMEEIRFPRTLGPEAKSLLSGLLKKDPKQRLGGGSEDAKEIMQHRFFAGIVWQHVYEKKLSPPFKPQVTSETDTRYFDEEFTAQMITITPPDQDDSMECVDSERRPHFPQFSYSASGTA

Consider `CCCCCCCCCCCCC[C@@]1(C(=O)OCC)CCC[C@H]1OP(=O)([O-])OCC[N+](C)(C)C` (racemic), for which the IC50 in the assay on A549 [1] was found to be 2 µM; in the assay with MCF7, 11.2 µM; in assay [4] it was 14.1 µM; in assay [6] it was 3.1 µM. Also, the “Ratio IC50” value with A549 [2], in the assay with A549 [3] and in the assay with A549 [5] was 4 throughout.

For `CCCCCCCCCCCCCCCC[C@@]1(C(=O)OCC)CCC[C@H]1OP(=O)([O-])OCC[N+](C)(C)C` (racemic), the IC50 in the assay on A549 [1] came to 1.6 µM; in the assay on MCF7 it was 5.6 µM; in assay [4] it was 7.9 µM; in assay [6], 2 µM. In addition, the “Ratio IC50” value with A549 [2], in the assay on A549 [3] and in the assay on A549 [5] was 4 in each case.

Take `CCCCCCCCCCCCCCCCCC[C@@]1(C(=O)OCC)CCC[C@H]1OP(=O)([O-])OCC[N+](C)(C)C` (racemic): the IC50 in the assay on A549 [1] is 6.2 µM; in the assay with MCF7, 13.1 µM; in assay [4], 15 µM; in assay [6], 10.9 µM.

For the compound `CCCCCCCCCCCCCCCCCCCC[C@@]1(C(=O)OCC)CCC[C@H]1OP(=O)([O-])OCC[N+](C)(C)C` (racemic), the IC50 was 13.6 µM with A549 [1], 9.7 µM with MCF7, 11.1 µM in assay [4] and 7 µM in assay [6].

For the compound `CCCCCCCCCCCCCCCCCCCCCC[C@@]1(C(=O)OCC)CCC[C@H]1OP(=O)([O-])OCC[N+](C)(C)C` (racemic), the IC50 in the assay on A549 [1] was 6.9 µM; with MCF7 it was 16.8 µM; in assay [4] it was 10.4 µM; in assay [6] it was 5.5 µM.

In the case of `CCCCCCCCCCCCC[C@@]1(C(=O)OCC)CCC[C@@H]1OP(=O)([O-])OCC[N+](C)(C)C` (racemic), the IC50 was determined as 2.7 µM with A549 [1], 4.5 µM with MCF7, 9.7 µM in assay [4] and 6.2 µM in assay [6].

Regarding `CCCCCCCCCCCCCCCC[C@@]1(C(=O)OCC)CCC[C@@H]1OP(=O)([O-])OCC[N+](C)(C)C` (racemic), the IC50 was determined as 3.6 µM in the assay with A549 [1], 11.1 µM with MCF7, 10.6 µM in assay [4] and 5 µM in assay [6].

`CCCCCCCCCCCCCCCCCC[C@@]1(C(=O)OCC)CCC[C@@H]1OP(=O)([O-])OCC[N+](C)(C)C` (racemic): the IC50 with A549 [1] came to 4.6 µM; in the assay with MCF7, 7.5 µM; in assay [4] it was 9.9 µM; in assay [6], 3 µM.

For `CCCCCCCCCCCCCCCCCCCC[C@@]1(C(=O)OCC)CCC[C@@H]1OP(=O)([O-])OCC[N+](C)(C)C` (racemic), the IC50 in the assay with A549 [1] amounted to 7.2 µM; in the assay on MCF7 it was 16 µM; in assay [4] it was 10.9 µM; in assay [6] it was 6.9 µM.

Regarding `CCCCCCCCCCCCCCCCCCCCCC[C@@]1(C(=O)OCC)CCC[C@@H]1OP(=O)([O-])OCC[N+](C)(C)C` (racemic), the IC50 in the assay on A549 [1] was 17.8 µM; with MCF7, 7.6 µM; in assay [4], 11.4 µM; in assay [6] it was 19.1 µM.

For the compound `CCCCCCCCCCCCCCCCCCOCC(COP(=O)([O-])OCC[N+](C)(C)C)OC` (configuration not stated) [EDELFOSINE], the IC50 with A549 [1] was 7.4 µM; in the assay with MCF7, 9.3 µM; in assay [4] it was 12.8 µM; in assay [6] it was 3.5 µM.

Compound `CCCCCCCCCCCCCCCCOP(=O)([O-])OCC[N+](C)(C)C` [MILTEFOSINE] had an IC50 in assay [6] of 9.6 µM.

As to `CCCCCCCCCCCCCCCCCCOP(=O)([O-])OC1CC[N+](C)(C)CC1` [PERIFOSINE], in assay [6], the IC50 is 5.3 µM.
